Data set [1] has as its system zebrafish liver cells (ZFL). Kind of data set: Cell cycle analysis with flow cytometry. The format is cell-based. The note with it: 72 h; for effect on cell cycle progression: concentration-dependent, parallel decrease in S-phase fraction. On the procedure: ZFL cells were seeded onto T25 culture plates at a density of 450,000 cells for 24 h. […] The positive control was etoposide (0.17 μM), which is known to arrest cells in the G2/M phase of the cell cycle. After 72 h, cells were trypsinized (0.25% trypsin-EDTA) and washed with 1x PBS before fixation in 4% paraformaldehyde (PFA). For flow cytometric analysis, fixed cells were washed in cold 1x PBS and stained with Hoechst 33258 dye (diluted in 0.1% Triton X-100 1:500) as described by Stampar et al.. Flow cytometric measurements were performed using a MACSQuant Analyzer 10 and the experiment was repeated three times independently. Each time, 20,000 single cells were recorded per experimental point. The data obtained were analyzed using FlowJo V10 software (Becton Dickinson, Franklin Lakes, NJ, USA). Statistical analysis for cell cycle was performed by the two-way ANOVA with Fisher’s LSD test using GraphPad Prism V6 (GraphPad Software, La Jolla, CA, USA). * p < 0.05, ** (p < 0.01), *** (p < 0.001) were considered statistically significant.
Background: In flow cytometry, cells or beads pass a laser one at a time.

The subject of data set [2] is certain target cancer cells. On the set-up: method as in ref 56, 57 (DAS), 58, 59 (REG). The note with it: in vitro; 57 (DAS), 58, 59 (REG); cited from earlier work.
The test system of the next data set is rats. On the set-up: method as in EMEA documents (69). The note with it: ref EMEA documents (69); cited from earlier work.
Data set [3] concerns zebrafish liver cells (ZFL). Briefly: Propidium iodide live/dead staining by flow cytometry. It is filed as cell-based. How it is done: Benzo[a]pyrene (50 μM), an indirect-acting genotoxic agent which requires metabolic activation for its genotoxic effects, and etoposide (0.17 μM), a direct-acting genotoxic agent, were selected as positive controls. After 72 h, floating and adherent cells were collected, resuspended in ice-cold 1x PBS, and immediately analyzed. Propidium iodide (PI) at a final concentration of 1 μg/mL was added to the cells 5 min before the start of measurements using the MACSQuant Analyzer 10 flow cytometer (Miltenyi Biotech, Bergisch Gladbach, Germany). MASCQuantifiy software (Miltenyi Biotech, Bergisch Gladbach, Germany) was used to quantify PI negative and positive cells. The experiments were repeated three times independently. Statistical significance between the treated groups and control was determined by one-way ANOVA with post hoc multiple comparison Dunett’s test using GraphPad Prism V6 (GraphPad Software, La Jolla, CA, USA). * p < 0.05 was considered statistically significant.

Data set [4] deals with HepG2 cells. To be noted: 20 μM; ref Mingard et al. 46; cited from earlier work.
The subject of data set [5] is targeted and non-targeted human chronic myeloid leukemia cancer cells. On the set-up: method as in doi:10.1182/blood.V124.21.5510.5510. To be noted: therapeutic concentrations (NIL 48 h); cited from earlier work.
Data set [6] has as its system primary human hepatocytes. To be noted: cited from earlier work.
The nature of data set [7]: MTS assay, viability of ZFL cells. The format is cell-based, zebrafish. The note with it: zebrafish, ZFL cells (zebrafish liver cell line), ZFL cells, read-out: IC50 for TKIs Cytotoxicity (95% Confidence Interval); for IC50 at 24 h: 24 h exposure; for IC50 at 48 h: 48 h exposure; for IC50 at 72 h: 72 h exposure. On the procedure:
(§1) The viability of ZFL cells after 24, 48, and 72 h of exposure to TKIs was determined using the tetrazolium-based (MTS) assay (Cell Titer 96 AQueous Non-Radioactive Cell Proliferation Assay; Promega, Madison, WI, USA) as previously described by Novak et al.. Cells were seeded in 96-well microtiter plates (Corning Costar Corporation, New York, NY, USA) at a density of 7000 cells/well. […] Three independent experiments were performed, each with five replicates per treatment point. The statistical significance between the treated groups and the solvent control was determined by Student’s t-test using GraphPad Prism V6 (GraphPad Software, La Jolla, CA, USA). *** (p < 0.001)was considered statistically significant.

Data set [8] relates to zebrafish liver cells (ZFL). Briefly: MTS assay, viability of ZFL cells. The format is cell-based. To be noted: 24, 48, 72 h; dose- and time-dependent; ERL and NIL up to their maximum solubility. On the procedure:
as §1
(Formazan colour is commonly taken as a measure of viable cells.)

Data set [9] relates to zebrafish liver cells (ZFL). Briefly: Micronucleus detection by flow cytometry. It is filed as cell-based. To be noted: 72 h. On the procedure:
ZFL cells were seeded onto 24-well culture plates (Nunclon) at a density of 35,000 cells per well for 24 h. […] Etoposide (0.17 μM and 0.68 μM) was used as a positive control. After 72 h, cells were placed on ice for 20 min, and subsequently a 0.05 mg/mL EMA solution was added to each well. The cells were placed on ice for 30 min and exposed to light for photoactivation of the EMA fluorochrome. Afterwards, cells were washed and resuspended in lysis solution (0.584 mg/mL NaCl, 1 mg/mL sodium citrate, and 0.3 μL/mL Triton X-100) containing 0.2 μM SYTOX Green and 0.25 mg/mL RNAse A, and incubated for 1 h in the dark at 37 °C. After incubation, lysis solution (85.6 mg/mL sucrose and 15 mg/mL citric acid) containing 0.2 μM SYTOX Green was added to the wells of the plate and incubated for a further 30 min at room temperature in the dark. Cells were analyzed on the same day using MACSQuant Analyzer 10 flow cytometer. MASCQuantify Software 2.11. was used to analyze each sample, and the percentage of micronuclei was determined after the acquisition of a total of 20,000 gated nuclei events, excluding EMA-positive events. One-way ANOVA with post hoc multiple comparison Dunett’s test using GraphPad Prism V6 (GraphPad Software, Carlsbad, CA, USA) was carried out. * p < 0.05 and *** p < 0.0001 were considered statistically significant.

The test system of a further data set is primary rat hepatocytes. To be noted: cited from earlier work.
In the next data set the test system is mammalian cells. On the set-up: method as in EMEA documents (69). To be noted: ref EMEA documents (69); cited from earlier work.
A further data set has as its system mice. Also noted: method as in EMEA documents (69). To be noted: ref EMEA documents (69); cited from earlier work.
Data set [10] concerns human hepatocellular carcinoma SK-HEP-1 cells. To be noted: approximately 10 μM, 24 h; cited from earlier work.
The test system of data set [11] is Huh-7 cells. On the set-up: method as in PMID 32397371. To be noted: 48 h exposure; cited from earlier work.
In data set [12] the test system is human colon adenocarcinoma HT-29 cell line. The note with it: 16 uM for 12 h; cited from earlier work.
The subject of data set [13] is Huh-7 cells. The note with it: 72 h; cited from earlier work.
Data set [14] concerns liver of male albino rats. On the set-up: method as in ref 64 = [64]; 64. Diab A.A.A. El-aziz S.A.A. Hendawy A.A. Hamza R.Z. Salim D.M.M. Protective Effect of Antioxidants Combinations (Vit A, C, E and Selenium) (Antox Drug) against Oxidative Stress and Cellular Toxicit. To be noted: 10 mg/kg body weight daily for two weeks; cited from earlier work.
Data set [15] relates to Huh7, A549 and MCF-7 cells. To be noted: cited from earlier work.
The subject of data set [16] is human hepatocellular carcinoma SMMC-7721 cells. To be noted: approximately 5 μM, 24 h; cited from earlier work.
The next data set deals with Swiss albino mice. The note with it: cited from earlier work.
Data set [17] deals with HepG2 cells. Also noted: method as in PMID 32913557. To be noted: 1 µM for 24 h; cited from earlier work.
The test system of data set [18] is HepG2 cells. On the set-up: method as in PMID 32397371. The note with it: 48 h exposure; cited from earlier work.

Like-named read-outs stand apart in the source and are kept apart here.

Take `Cc1nc(Nc2ncc(C(=O)Nc3c(C)cccc3Cl)s2)cc(N2CCN(CCO)CC2)n1` [DAS, dasatinib]: the “concentration that induced G0/G1 cell cycle arrest with decrease in number of cells in S phase” value in [1] stood at 0.03 µM. The “effect on cell cycle progression” value in data set [1] is given as “arrest of the cell cycle in the G0/G1 phase”. The “DNA damage assessed by comet assay” value in data set [2] is reported as “induce DNA damage”. In the data set with rats, the “in vivo micronucleus assay” value is “negative”. In [3] (all tested DAS concentrations (0.015-0.06 μM), 72 h), the “FSC/SSC dot plot shift, apoptosis” value was “induction of apoptosis”. For the same compound, in data set [3] (lowest DAS concentration (0.015 μM), 72 h), the exposed cells degraded result is recorded as “more than 50%”. In addition, in the data set with HepG2 cells [4], the apoptosis entry was “induced apoptosis”. Besides, the centromere positive micronuclei entry in data set [5] is “increased the number of centromere positive micronuclei”. Moreover, the results for the cytotoxicity entry (in [6]; in the data set on primary rat hepatocytes) were “not to primary human hepatocytes” and “cytotoxic only to primary rat hepatocytes”, respectively. Also, the IC50 at 24 h in data set [7] was determined as 0.64 µM. In data set [7], the IC50 at 48 h is 0.24 µM. Besides, the IC50 at 72 h in [7] amounted to 0.16 µM. Besides, the “viability of the ZFL cells” value in [8] is on record as “reduced”. Further, the “MNi in representative dot plot” value is “increased amount of MNi” in data set [9] (0.015 μM); “increased amount of MNi” in data set [9] (0.03 μM); “low amount of nuclei and MNi” in data set [9] (0.06 μM). Further, the IC50 in the data set on primary rat hepatocytes (48 h exposure, read-out: 50% growth inhibition) is 21.1 µM. Also, the structural chromosomal aberrations result in the data set with mammalian cells was “increased the number of structural chromosomal aberrations”.
For `CNC(=O)c1cc(Oc2ccc(NC(=O)Nc3ccc(Cl)c(C(F)(F)F)c3)cc2)ccn1` [SOR, sorafenib], the “in vivo micronucleus assay” value in the data set with mice was “negative”. The MNi formation entry in data set [10] was “did not increase MNi formation”. In [1], the “concentration that induced G0/G1 cell cycle arrest with decrease in number of cells in S phase” value was 1 µM and the “effect on cell cycle progression” value is recorded as “arrest of the cell cycle in the G0/G1 phase”. In addition, in the data set with Huh-7 cells [11], the “concentration with significant change in cell viability” value is 2 µM. In addition, in data set [12], the “DNA double strand breaks (neutral comet assay)” value was “did not significantly increase DNA double strand breaks”. In addition, the “concentration with cell cycle arrest” value in the data set with Huh-7 cells [13] is 3.7 µM. Also, the “DNA damage in liver (comet assay in vivo)” value in [14] was “induced DNA damage”. Besides, in data set [3] (72 h exposure, low concentrations), the “percentage of PI negative cells” value is reported as “did not significantly decrease”. Besides, the “DNA damage in vitro” value in data set [15] is recorded as “induced DNA damage”. The MNi formation entry in data set [16] is “did not increase MNi formation”. Further, the IC50 in data set [6] (24 h) is 10 µM. In data set [7], the IC50 at 24 h was 6.93 µM, the IC50 at 48 h amounted to 3.36 µM and the IC50 at 72 h was determined as 2.71 µM. Moreover, the “viability of the ZFL cells” value in data set [8] is reported as “reduced”. The MNi frequency entry in [9] (non-cytotoxic concentrations) is “did not significantly increase”. The “increase in MNi formation” value in the data set with Swiss albino mice is “approximately 10 fold”. For the same compound, the IC50 in the data set on primary rat hepatocytes (24 h, read-out: IC50) was 5.46 µM. Further, the “DNA strand breaks (alkaline comet assay)” value with HepG2 cells [17] is “did not significantly increase”. Further, in the data set on HepG2 cells [18], the “concentration with significant change in cell viability” value was 5 µM. Besides, the structural chromosomal aberrations result in the data set with mammalian cells is on record as “increased the number of structural chromosomal aberrations”.

The record behind these values is PMC9965539, “Adverse Toxic Effects of Tyrosine Kinase Inhibitors on Non-Target Zebrafish Liver (ZFL) Cells” (International Journal of Molecular Sciences, 2023).
